Reference: patent EP2098226A1, “AKAP-PKA interaction inhibitors for use in the treatment of heart diseases” (Forschungsverbund Berlin e.V., priority 2008, dated 2009)
Read-outs that look alike come from different tables or passages of the source.

Assays:
[1] = tested on: Interaktionen von regulatorischen RII-Untereineinheiten der PKA (RIIα und β) mit AKAP150, dem AKAP Yotiao und AKAP18δ; test: cAMP-agarose precipitation with Western blot detection of precipitated AKAPs; assay type: cell-based; conditions: neonatal cardiomyocytes; FMP-API-1 100 µM; precipitated AKAPs detected by Western blot
Experimental: Die Verbindungen 18882 (FMP-API-1), 1016, 1020 und 1021 (siehe Tabelle 1) hemmen die Interaktionen von regulatorischen RII-Untereineinheiten der PKA (RIIα und β) mit AKAP150, dem AKAP Yotiao und AKAP18δ. Es wurden cAMP-Agarose-Präzipitationen mit neonatalen Kardiomyozyten in Ab- oder Anwesenheit des AKAP-PKA-Interaktionshemmers FMP-API-1 (100 µM), einer Kontrollsubstanz (100 µM) und cAMP (50 mM) durchgeführt. cAMP-Agarose bindet regulatorische Untereinheiten der PKA und deren Bindungspartner, inklusive AKAP. Präzipitierte AKAP wurden mit spezifischen Antikörpern mittels Western Blot detektiert.

[2] = tested on: neonatalen Kardiomyozyten aus der Ratte; test: cAMP level in neonatal cardiomyocytes, radioimmunoassay (RIA); assay type: cell-based; conditions: substances 50 µM in the presence of Isoproterenol 100 nM
Experimental: Die Substanzen 18882 (FMP-API-1), 1004, 1010, 1016, 1020, 1021 und 1023 steigern in Gegenwart des β-Adrenozeptoragonisten Isoproterenol den cAMP-Spiegel in neonatalen Kardiomyozyten aus der Ratte. Die Zellen wurden unbehandelt belassen, mit Isoproterenol allein (100 nM), mit Isoproterenol (100 nM) und den Substanzen (50 µM) oder mit Forskolin inkubiert. Der cAMP-Spiegel wurde durch Radioimmuno-Assay (RIA) bestimmt.

[3] = tested on: AKAP18δ und regulatorischen RIIα- und RIIβ-Untereinheiten; test: Oligomerisation of AKAP18δ and RII subunits in neonatal cardiomyocytes (cAMP-agarose precipitation, Western blot); assay type: cell-based; conditions: neonatal cardiomyocytes incubated with the substances
Text: Neonatale Kardiomyozyten wurden mit den Substanzen in den angegebenen Konzentrationen inkubiert. A. Anschließend wurde eine cAMP-Agarose-Präzipitation und ein Western Blot (WB) zur Detektion von AKAP18δ durchgeführt. Als Negativkontrolle wurde die cAMP-Agarose mit cAMP inkubiert, das die Bindung von R-Untereinheiten an die Agarose verhindert. B. Detektion von RIIβ in Lysaten von neonatalen Kardiomyozyten. C. Detektion von AKAP18δ, RIIα und RIIβ nach Inkubation mit den Substanzen.

[4] = tested on: kultivierten adulten Kardiomyozyten; test: Contractility of cultured adult cardiomyocytes (Fura-2, field stimulation); assay type: cell-based; conditions: 10µM; calcium fluxes and cell shortening parameters
Experimental: Die Substanzen 18882 (FMP-API-1) und 1016 steigern die Kontraktilität an kultivierten adulten Kardiomyozyten (positiv inotroper Effekt). Die Zellen wurden isoliert, mit Fura-2 beladen und einer Feldstimulation ausgesetzt. Bestimmt wurden die Calciumfluxe und Zellverkürzungsparameter (cell shortening parameters) unter basalen Bedingungen und in Gegenwart von DMSO, Isoproterenol , FMP-API-1 (10µM) oder 1016 (10µM). Dargestellt sind Mittelwerte ± SEM.

[5] = target: Bindung von RIIα an Peptide, die aus der PKA-Bindedomäne von AKAP18δ abgeleitet sind (AKAP18δ-L314E) (Homo sapiens, UniProt P13861); test: Biacore: inhibition of RIIα binding to immobilised peptide AKAP18δ-L314E; conditions: for inhibition at 100 µM: read-out: maximale Hemmung (RIIα-Bindung an das Peptid AKAP18δ-L314E); for Hemmung der Interaktion (RIIα-Bindung an das Peptid AKAP18δ-L314E): preincubation of RIIα for 2 h
Text: Für das Experiment wurden Oberflächen mit dem Peptid beschichtet, mit RIIα-Untereinheiten inkubiert und die Reaktion in Biacore-Messungen verfolgt.

PKA [6] = test: PKA activation in neonatal cardiomyocytes (Peptag phosphorylation); assay type: cell-based, Ratte; conditions: 300µM for 30 min, densitometry
Experimental: Die zeigt, dass die Substanzen 1016,1020,1021 und 1027 PKA in neonatalen Kardiomyozyten aus der Ratte aktivieren. Die Zellen wurden mit DMSO (Kontrolle), die Substanzen in 300µM Konzentrationen, oder dem Adenylylzyklaseaktivator Forskolin für 30 min inkubiert. Die Aktivierung der PKA wurde anhand der Phosphorylierung des fluoreszierenden Substratpeptids Peptag verfolgt und quantifiziert. Die semiquantitative Analyse der Peptag-Peptidephosphorylierung wurde densitometrisch vorgenommen. Angegeben sind relative densitometrische Einheiten (RDU; Mittelwerte ± SD).
zeigt, dass die Substanzen 1016,1020,1021 und 1027 PKA in neonatalen Kardiomyozyten aus der Ratte aktivieren. Die Zellen wurden mit DMSO (Kontrolle), die Substanzen in 300µM Konzentrationen, oder dem Adenylylzyklaseaktivator Forskolin (FSK) für 30 min inkubiert. Die Aktivierung der PKA wurde anhand der Phosphorylierung des fluoreszierenden Substratpeptids Peptag verfolgt und quantifiziert. Die semiquantitative Analyse der Peptag-Peptidephosphorylierung wurde densitometrisch vorgenommen. Angegeben sind relative densitometrische Einheiten (RDU; Mittelwerte ± SD).

Phopholamban (PLB) = test: Phospholamban phosphorylation in neonatal cardiomyocytes (Western blot); assay type: cell-based; conditions: 300 µM for 5 min; p-PLB relative to Calsequestrin
Experimental: Die Zellen wurden mit DMSO (control), dem β-Adrenozeptoragonisten Isoproterenol (ISO) oder dem AKAP-PKA-Interaktionshemmer FMP-API-1 bzw. dessen Derivaten (300 µM) für 5 min. inkubiert, anschließend lysiert und im Western Blot wurde phosphoryliertes Phospholamban (p-PLB) mittels eines spezifischen anti-Phospholambanantikörpers detektiert. Calsequestrin, ein Protein des sarkoplasmatischen Retikulums, dient als Ladungskontrolle. Für die Quantifizierung (densitometrische Auswertung) wurde die p-PLB-Menge auf die Menge von Calsequestrin bezogen. Angegeben sind relative densitometrische Einheiten (RDU; Mittelwerte ± SEM, drei unabhängige Experimente).

RIIα = RIIα (Homo sapiens, UniProt P13861); test: Biacore: direct binding of substances to covalently immobilised RIIα; conditions: for Bindungen des Peptids Ht31 und der Substanz an RIIα: RIIα surface incubated with peptide Ht31 and additionally with the substance; for Bindung an RIIα: surfaces covalently coated with RIIα, incubated with the substances
Text: Biacore-Messungen zum Nachweis der Bindung der Substanz 1026 an RIIα. Es wurden Oberflächen durch kovalente Bindung mit RIIα beschichtet und mit der Substanz in den angegebenen Konzentrationen inkubiert.
Die Bindungen des Peptids Ht31 und der Substanz 1026 an RIIα sind additiv. Es wurden Oberflächen durch kovalente Bindung mit RIIα beschichtet und mit dem Peptid Ht31, das an die sog. Dimerisierungs- und docking-Domäne (DD-Domäne) von regulatorischen Untereinheiten der PKA bindet, inkubiert.
Es wurden Oberflächen durch kovalente Bindung mit RIIα beschichtet und mit den Substanzen inkubiert.

[7] = tested on: neonatalen Kardiomyozyten aus der Ratte; test: cAMP level in neonatal cardiomyocytes, ELISA-based assay; assay type: cell-based; conditions: substances 50 µM in the presence of Isoproterenol 100 nM
Experimental: Die Substanzen 1025, 1026, 1027 und 1028 steigern in Gegenwart des β-Adrenozeptoragonisten Isoproterenol den cAMP-Spiegel in neonatalen Kardiomyozyten aus der Ratte. Die Zellen wurden unbehandelt belassen, mit Isoproterenol allein (100 nM) oder mit Isoproterenol (100 nM) und den Substanzen (50 µM) inkubiert. Der cAMP-Spiegel wurde durch einen ELISA-basierten Assay bestimmt.

Rattenherzen = test: Langendorff isolated heart: left ventricular pressure, contraction and relaxation rates; parameters: species or system Ratte; conditions: perfused rat hearts, 10 µM, n ≥ 8 hearts per condition
Experimental: Bestimmung der linksventrikulären Druckentwicklung, der maximalen Kontraktions- (CR) und Relaxationsraten (RR) von Rattenherzen (in %) in einer Langendorff-Herz-Apparatur.
zeigt den Einfluss von Isoproterenol, DMSO, den Substanzen 1016, 1020 und 1021 auf die relative Zellgröße der Kardiomyozyten bezogen auf die durchschnittliche Zellgröße von Kontrollzellen (%). Kardiomyozyten wurden für 48h entweder unbehandelt belassen oder mit 15 µM Isoproterenol als Kontrollen inkubiert. Da die Kardiomyozyten zusätzlich zu der Substanz mit höchstens 0,1% DMSO inkubiert wurden, wurden Kardiomyozyten nur mit 0,1% für 48h inkubiert. Des Weiteren wurde ein möglicher Effekt von DMSO auf die Isoproterenolinduzierte Hypertrophie untersucht und die Zellen demnach mit 0,1% DMSO für 20 min präinkubiert und anschließend mit 15 µM Isoproterenol für 48 h inkubiert. Außerdem wurden Kardiomyozyten mit den Substanzen 1016, 1020 und 1021 in den Konzentrationen 3, 10, 30, 50 oder 75 µM für 48 h ohne Isoproterenol inkubiert. Des Weiteren wurden Kardiomyozyten mit den Substanzen 1016, 1020 und 1021 in den Konzentrationen 3, 10, 30, 50 oder 75 µM präinkubiert. Dann wurde Isoproterenol (15 µM) zu den Endkonzentrationen von 3, 10, 30, 50 oder 75 µM zugegeben und die Kardiomyozyten damit für 48 h inkubiert. Nach der Inkubation mit den Substanzen wurde α-Aktinin immunfluoreszenzmikroskopisch dargestellt. […]

PKA [8] = target: PKA (Homo sapiens, UniProt P31323); test: PKA activation in vitro (Peptag substrate peptide phosphorylation); assay type: biochemical; conditions: 1 mM, catalytic subunits with or without RIIβ subunits
Experimental: Die Substanz 18882 (FMP-API-1) aktiviert PKA in vitro. Das Experiment wurde wie in Abb. 24 dargestellt durchgeführt. Hier wurde zusätzlich mit AKAP18δ inkubiert. Katalytische Untereinheiten der PKA wurden in An- oder Abwesenheit von regulatorischen RIIβ-Untereinheiten mit der Substanz 18882 (FMP-API-1; 1 mM) inkubiert. Die Aktivierung der PKA wurde anhand der Phosphorylierung des fluoreszierenden Substratpeptids Peptag verfolgt und quantifiziert. Die semiquantitative Analyse der Peptag-Peptidphosphorylierung wurde densitometrisch vorgenommen (Mittelwerte ± SEM). Die Gegenwart des AKAP hat einen geringen zusätzlich Einfluß auf den Effekt der Substanz 18882.

Chain of Bindung von RIIα an Peptide, die aus der PKA-Bindedomäne von AKAP18δ abgeleitet sind (AKAP18δ-L314E) (P13861 whole entry, stated change not applied): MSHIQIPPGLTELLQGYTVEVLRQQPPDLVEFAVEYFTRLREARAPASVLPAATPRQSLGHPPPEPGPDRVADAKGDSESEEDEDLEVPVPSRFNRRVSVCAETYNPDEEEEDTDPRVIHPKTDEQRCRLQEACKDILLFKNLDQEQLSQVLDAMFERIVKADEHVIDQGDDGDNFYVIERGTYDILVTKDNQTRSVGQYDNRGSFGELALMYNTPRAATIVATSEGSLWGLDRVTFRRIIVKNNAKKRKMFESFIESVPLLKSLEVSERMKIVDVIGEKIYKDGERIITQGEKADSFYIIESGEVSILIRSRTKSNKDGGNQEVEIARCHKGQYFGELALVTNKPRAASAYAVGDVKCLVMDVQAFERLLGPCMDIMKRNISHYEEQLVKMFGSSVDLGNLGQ
Chain of RIIα (P13861 whole entry): as the sequence (P13861 whole entry, stated change not applied) above
Chain of PKA (Homo sapiens, UniProt P31323) (P31323 whole entry): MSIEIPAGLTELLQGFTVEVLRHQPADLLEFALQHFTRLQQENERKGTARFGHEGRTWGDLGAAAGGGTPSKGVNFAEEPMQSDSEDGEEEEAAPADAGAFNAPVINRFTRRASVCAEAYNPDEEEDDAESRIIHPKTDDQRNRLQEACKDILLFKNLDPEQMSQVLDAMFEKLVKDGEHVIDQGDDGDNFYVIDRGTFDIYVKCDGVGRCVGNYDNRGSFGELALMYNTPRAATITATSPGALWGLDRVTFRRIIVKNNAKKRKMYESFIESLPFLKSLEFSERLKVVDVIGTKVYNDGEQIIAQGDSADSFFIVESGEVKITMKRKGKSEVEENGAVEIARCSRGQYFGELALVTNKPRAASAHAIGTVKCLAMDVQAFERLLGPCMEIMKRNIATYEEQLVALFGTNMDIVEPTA

| Compound | Hemmung der Interaktionen von regulatorischen RII-Untereineinheiten der PKA (RIIα und β) mit AKAP150, Yotiao und AKAP18δ [1] | cAMP-Spiegel [2] | Oligomerisierung (Oligomers) von AKAP18δ und regulatorischen RIIα- und RIIβ-Untereinheiten [3] | Kontraktilität (positiv inotroper Effekt) [4] | inhibition at 100 µM ([5]; concentration 100 µM) | Hemmung der Interaktion (RIIα-Bindung an das Peptid AKAP18δ-L314E) [5] | Aktivierung der PKA in neonatalen Kardiomyozyten (PKA [6]) | Phosphorylierung von Phopholamban (PLB) (Phopholamban (PLB)) | inhibition at 100 µM [5] | Bindungen des Peptids Ht31 und der Substanz an RIIα (RIIα) | Bindung an RIIα (RIIα) | cAMP-Spiegel [7] | Zunahme der gemessenen Parameter (linksventrikuläre Druckentwicklung, maximale Kontraktions- (CR) und Relaxationsraten (RR)) (Rattenherzen) | Aktivierung der PKA in vitro (PKA [8]) |
| --- | --- | --- | --- | --- | --- | --- | --- | --- | --- | --- | --- | --- | --- | --- |
| Nc1cc(Cc2ccc(O)cc2)ccc1O [Verbindung 1016, 3-Amino-4,4'-dihydroxydiphenylmethan] | hemmen | steigern | induzieren die Oligomerisierung | steigern | ~60% | ~50% | aktivieren | induzieren eine Zunahme | – | – | – | – | – | – |
| CC(c1ccc(O)c(N)c1)c1ccc(O)c(N)c1 [Verbindung 1020, 1,1-Bis-(3-Amino-4-hydroxyphenyl)-ethan] | hemmen | steigern | induzieren die Oligomerisierung | – | – | ~50% | aktivieren | induzieren eine Zunahme | ~50% | – | – | – | – | – |
| CC(c1ccc(O)cc1)c1ccc(O)c(N)c1 (stereo not shown) [Verbindung 1021, 3-Amino-1,1-bis-(4-hydroxyphenyl)-ethan] | hemmen | steigern | induzieren die Oligomerisierung | – | – | ~40% | aktivieren | induzieren eine Zunahme | ~50% | – | – | – | – | – |
| Oc1ccc(Cc2ccccc2)cc1O [Verbindung 1027, 4-Benzyl-pyrocatechol] | – | – | – | – | – | – | aktivieren | – | – | additiv | konzentrationsabhängigen Bindung | steigern | – | – |
| O=C(c1ccc(O)c(O)c1)c1ccc(O)c(O)c1 [Verbindung 1028, Bis-(3,4-dihydroxy-phenyl)-methanon] | – | – | – | – | – | – | – | – | – | additiv | konzentrationsabhängigen Bindung | steigern | – | – |
| COc1ccc(Cc2ccc(OC)c(N)c2)cc1N [Verbindung 1030] | – | – | – | – | – | – | – | – | – | – | konzentrationsabhängigen Bindung | – | – | – |
| Nc1cc(Cc2ccc(O)c(N)c2)ccc1O [Verbindung 18882, 3,3'-Diamino-4,4'-dihydroxydiphenylmethan, reference compound] | hemmen | steigern | induzieren die Oligomerisierung | steigern | – | – | – | induzieren eine Zunahme | – | – | – | – | ~17% | aktiviert |
